Target: Dual specificity tyrosine-phosphorylation-regulated kinase 1B (Homo sapiens, UniProt Q9Y463)
Sequence (Q9Y463 whole entry): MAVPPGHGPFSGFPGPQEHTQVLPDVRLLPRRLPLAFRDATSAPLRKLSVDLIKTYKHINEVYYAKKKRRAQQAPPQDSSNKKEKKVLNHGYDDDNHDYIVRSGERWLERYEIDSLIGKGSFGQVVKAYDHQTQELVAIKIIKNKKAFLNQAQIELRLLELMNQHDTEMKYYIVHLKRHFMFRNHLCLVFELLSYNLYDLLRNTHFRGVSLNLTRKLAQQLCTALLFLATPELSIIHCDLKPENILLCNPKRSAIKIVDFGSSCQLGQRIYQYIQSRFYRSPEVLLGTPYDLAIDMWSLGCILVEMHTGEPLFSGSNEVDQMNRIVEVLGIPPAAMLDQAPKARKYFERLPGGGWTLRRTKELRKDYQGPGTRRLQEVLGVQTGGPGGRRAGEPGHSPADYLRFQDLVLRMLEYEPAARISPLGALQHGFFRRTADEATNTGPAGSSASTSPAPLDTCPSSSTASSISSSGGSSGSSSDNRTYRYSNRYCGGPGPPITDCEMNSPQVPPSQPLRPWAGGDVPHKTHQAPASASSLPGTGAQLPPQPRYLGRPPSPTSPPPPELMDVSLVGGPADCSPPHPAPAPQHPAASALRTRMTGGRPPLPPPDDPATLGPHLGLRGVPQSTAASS
Conditions: not given
For `CCCNC1=N/C(=C\c2ccc3c(c2)OCO3)C(=O)N1c1ccccc1`, the IC50 was over 10 µM.
`CCCSC1=N/C(=C\c2ccc3c(c2)OCO3)C(=O)N1` gave an IC50 of 0.09 µM.
Work on `CCCNC1=N/C(=C\c2ccc3c(c2)OCO3)C(=O)N1` yielded an IC50 of 0.31 µM.

Target: T1, Dual specificity tyrosine-phosphorylation-regulated kinase 1A (Homo sapiens, UniProt Q13627)
Assay: Inhibition of DYRK1A in human SH-SY5Y overexpressing Tau4R cells assessed as phosphorylated Tau Thr212 residue level at 10 uM incubated for 6 hrs by western blot analysis relative to control
Format: cell-based
Conditions: not given
Work on `CCCSC1=N/C(=C\c2ccc3c(c2)OCO3)C(=O)N1` yielded an inhibition of -2.4%.

Target: Cannabinoid receptor 1 (Homo sapiens, UniProt P21554)
Sequence (P21554 whole entry): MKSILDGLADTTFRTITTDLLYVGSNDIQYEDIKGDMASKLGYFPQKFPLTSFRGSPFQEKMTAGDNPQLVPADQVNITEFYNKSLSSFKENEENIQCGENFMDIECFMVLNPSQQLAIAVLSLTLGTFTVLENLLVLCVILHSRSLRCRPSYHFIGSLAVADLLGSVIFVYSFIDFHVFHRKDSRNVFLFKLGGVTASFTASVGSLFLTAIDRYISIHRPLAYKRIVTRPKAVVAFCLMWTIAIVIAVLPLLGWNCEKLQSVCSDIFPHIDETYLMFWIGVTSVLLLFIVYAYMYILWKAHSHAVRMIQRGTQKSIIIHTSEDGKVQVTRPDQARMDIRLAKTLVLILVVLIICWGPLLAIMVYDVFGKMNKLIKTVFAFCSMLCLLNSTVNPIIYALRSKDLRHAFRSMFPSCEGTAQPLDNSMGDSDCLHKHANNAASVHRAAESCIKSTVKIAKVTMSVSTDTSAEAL
Assay: Antagonist activity at CP-55940-activated CB1 receptor (unknown origin) at 10 uM by beta-arrestin assay relative to control
Format: functional
Set-up: scale not given: the % may be the effect or the level left
Conditions: not given
With `CCCNC1=N/C(=C\c2ccc3c(c2)OCO3)C(=O)N1c1ccccc1` the Activity was -17.9%.
Work on `CCCSC1=N/C(=C\c2ccc3c(c2)OCO3)C(=O)N1` yielded an Activity of -2.6%.
With `CCCNC1=N/C(=C\c2ccc3c(c2)OCO3)C(=O)N1` the Activity was -14.8%.

Target: T1, Dual specificity tyrosine-phosphorylation-regulated kinase 1A
Assay: Inhibition of GST-fused human recombinant DYRK1A expressed in Escherichia coli using GRSRSRSRSRSR peptide as substrate incubated for 30 mins in presence of ATP by scintillation counting method
Conditions: not given
Work on `CCCNC1=N/C(=C\c2ccc3c(c2)OCO3)C(=O)N1c1ccccc1` yielded an IC50 of over 10 µM.
`CCCSC1=N/C(=C\c2ccc3c(c2)OCO3)C(=O)N1` showed an IC50 of 0.04 µM.
For `CCCNC1=N/C(=C\c2ccc3c(c2)OCO3)C(=O)N1`, the IC50 was 0.12 µM.

System: not listed separately
Assay: Neurotoxicity against mouse HT-22 cells assessed as cell survival treated for 24 hrs by MTS assay
Format: toxicity, cell-based
Conditions: not given
For `CCCNC1=N/C(=C\c2ccc3c(c2)OCO3)C(=O)N1c1ccccc1`, the EC50 at 24 h was over 20 µM.
For `CCCSC1=N/C(=C\c2ccc3c(c2)OCO3)C(=O)N1`, the EC50 at 24 h was over 20 µM.
`CCCNC1=N/C(=C\c2ccc3c(c2)OCO3)C(=O)N1` gave an EC50 at 24 h of over 20 µM.

Target: Dual specificity protein kinase CLK3 (Mus musculus, UniProt O35492)
Sequence (O35492 whole entry, the tested form may be a part): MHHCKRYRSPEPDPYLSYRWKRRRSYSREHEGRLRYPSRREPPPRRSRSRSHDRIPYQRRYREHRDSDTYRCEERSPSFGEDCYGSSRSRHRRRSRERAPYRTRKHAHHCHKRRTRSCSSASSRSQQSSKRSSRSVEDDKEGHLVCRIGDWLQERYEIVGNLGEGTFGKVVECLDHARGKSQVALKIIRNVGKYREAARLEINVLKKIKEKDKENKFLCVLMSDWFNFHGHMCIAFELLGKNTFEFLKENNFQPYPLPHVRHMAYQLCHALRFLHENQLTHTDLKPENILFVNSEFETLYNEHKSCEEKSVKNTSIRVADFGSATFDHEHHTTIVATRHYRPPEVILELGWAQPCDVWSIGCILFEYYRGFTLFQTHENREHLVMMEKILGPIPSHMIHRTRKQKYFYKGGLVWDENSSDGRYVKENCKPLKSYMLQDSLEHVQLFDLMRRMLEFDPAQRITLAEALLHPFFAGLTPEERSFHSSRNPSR
Assay: Inhibition of GST-fused mouse recombinant CLK3 expressed in Escherichia coli using GRSRSRSRSRSR peptide as substrate incubated for 30 mins in presence of ATP by scintillation counting method
Conditions: not given
In the case of `CCCNC1=N/C(=C\c2ccc3c(c2)OCO3)C(=O)N1c1ccccc1`, the IC50 is reported as 9.5 µM.
For `CCCSC1=N/C(=C\c2ccc3c(c2)OCO3)C(=O)N1`, the IC50 was 3.1 µM.
Work on `CCCNC1=N/C(=C\c2ccc3c(c2)OCO3)C(=O)N1` yielded an IC50 of 3 µM.

Target: Dual specificity protein kinase CLK1 (Mus musculus, UniProt P22518)
Sequence (P22518 whole entry, the tested form may be a part): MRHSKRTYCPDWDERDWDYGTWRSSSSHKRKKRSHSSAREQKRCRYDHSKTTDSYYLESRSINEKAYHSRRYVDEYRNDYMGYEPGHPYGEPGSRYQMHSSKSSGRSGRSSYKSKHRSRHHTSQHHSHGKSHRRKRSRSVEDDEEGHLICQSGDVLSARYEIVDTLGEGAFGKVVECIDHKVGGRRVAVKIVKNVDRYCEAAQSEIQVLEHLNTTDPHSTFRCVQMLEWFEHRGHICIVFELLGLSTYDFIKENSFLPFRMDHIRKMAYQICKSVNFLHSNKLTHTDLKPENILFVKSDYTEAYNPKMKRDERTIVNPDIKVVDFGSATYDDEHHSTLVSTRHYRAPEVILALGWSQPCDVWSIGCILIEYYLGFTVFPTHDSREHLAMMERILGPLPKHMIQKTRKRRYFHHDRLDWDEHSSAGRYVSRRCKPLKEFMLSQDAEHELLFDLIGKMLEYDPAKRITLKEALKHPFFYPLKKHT
Assay: Inhibition of GST-fused mouse recombinant CLK1 expressed in Escherichia coli using GRSRSRSRSRSR peptide as substrate incubated for 30 mins in presence of ATP by scintillation counting method
Conditions: not given
In the case of `CCCNC1=N/C(=C\c2ccc3c(c2)OCO3)C(=O)N1c1ccccc1`, the IC50 is reported as 2 µM.
`CCCSC1=N/C(=C\c2ccc3c(c2)OCO3)C(=O)N1` showed an IC50 of 0.034 µM.
In the case of `CCCNC1=N/C(=C\c2ccc3c(c2)OCO3)C(=O)N1`, the IC50 is reported as 0.07 µM.

Target: Dual specificity protein kinase CLK4 (Mus musculus, UniProt O35493)
Sequence (O35493 whole entry, the tested form may be a part): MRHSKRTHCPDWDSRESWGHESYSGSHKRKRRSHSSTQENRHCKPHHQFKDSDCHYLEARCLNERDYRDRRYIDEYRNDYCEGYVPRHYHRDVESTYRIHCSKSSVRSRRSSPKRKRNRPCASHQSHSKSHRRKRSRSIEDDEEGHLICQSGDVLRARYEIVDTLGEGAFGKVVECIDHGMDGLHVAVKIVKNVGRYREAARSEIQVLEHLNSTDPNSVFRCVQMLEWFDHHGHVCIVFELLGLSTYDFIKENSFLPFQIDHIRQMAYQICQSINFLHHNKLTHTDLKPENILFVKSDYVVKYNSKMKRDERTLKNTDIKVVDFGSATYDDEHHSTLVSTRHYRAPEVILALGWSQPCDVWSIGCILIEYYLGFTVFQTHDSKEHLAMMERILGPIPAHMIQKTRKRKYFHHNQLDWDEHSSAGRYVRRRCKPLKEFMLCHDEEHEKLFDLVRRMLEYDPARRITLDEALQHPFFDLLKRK
Assay: Inhibition of GST-fused mouse recombinant CLK4 expressed in Escherichia coli using GRSRSRSRSRSR peptide as substrate incubated for 30 mins in presence of ATP by scintillation counting method
Conditions: not given
For `CCCNC1=N/C(=C\c2ccc3c(c2)OCO3)C(=O)N1c1ccccc1`, the IC50 was 1.2 µM.
`CCCSC1=N/C(=C\c2ccc3c(c2)OCO3)C(=O)N1` gave an IC50 of 0.027 µM.
Compound `CCCNC1=N/C(=C\c2ccc3c(c2)OCO3)C(=O)N1` has an IC50 of 0.061 µM.

System: not listed separately
Assay: Neurotoxicity against mouse HT-22 cells assessed as cell survival at 20 uM treated for 24 hrs by MTS assay
Format: toxicity, cell-based
Conditions: ht-22, 24 h
With `CCCSC1=N/C(=C\c2ccc3c(c2)OCO3)C(=O)N1` the Activity was “Non-Toxic”.

Target: Glycogen synthase kinase-3 (Sus scrofa, UniProt B2LUN4+I6LNT8)
Assay: Inhibition of porcine brain GSK-3alpha/beta using YRRAAVPPSPSLSRHSSPHQpSEDEEE as substrate incubated for 30 mins in presence of ATP by scintillation counting method
Format: tissue-based
Conditions: not given
In the case of `CCCNC1=N/C(=C\c2ccc3c(c2)OCO3)C(=O)N1c1ccccc1`, the IC50 is reported as over 10 µM.
Compound `CCCSC1=N/C(=C\c2ccc3c(c2)OCO3)C(=O)N1` has an IC50 of 1.4 µM.
With `CCCNC1=N/C(=C\c2ccc3c(c2)OCO3)C(=O)N1` the IC50 was 4.1 µM.

Target: Dual specificity protein kinase CLK2 (Mus musculus, UniProt O35491)
Sequence (O35491 whole entry, the tested form may be a part): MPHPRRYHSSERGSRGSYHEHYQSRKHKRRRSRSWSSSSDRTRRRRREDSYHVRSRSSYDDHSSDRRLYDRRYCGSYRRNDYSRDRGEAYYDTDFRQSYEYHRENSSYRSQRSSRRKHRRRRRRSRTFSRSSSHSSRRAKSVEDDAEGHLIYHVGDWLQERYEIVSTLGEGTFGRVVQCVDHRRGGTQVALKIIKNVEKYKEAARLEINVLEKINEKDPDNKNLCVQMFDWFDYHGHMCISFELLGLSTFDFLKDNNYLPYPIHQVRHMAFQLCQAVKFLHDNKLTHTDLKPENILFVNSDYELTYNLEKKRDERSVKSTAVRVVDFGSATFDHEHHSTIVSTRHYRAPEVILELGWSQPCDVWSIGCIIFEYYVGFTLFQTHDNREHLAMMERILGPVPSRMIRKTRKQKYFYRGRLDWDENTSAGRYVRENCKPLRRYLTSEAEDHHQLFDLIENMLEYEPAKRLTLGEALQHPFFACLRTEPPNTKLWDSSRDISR
Assay: Inhibition of mouse recombinant GST-fused CLK2 expressed in Escherichia coli using GRSRSRSRSRSR peptide as substrate incubated for 30 mins in presence of ATP by scintillation counting method
Conditions: not given
For `CCCNC1=N/C(=C\c2ccc3c(c2)OCO3)C(=O)N1c1ccccc1`, the IC50 was 2.5 µM.
For `CCCSC1=N/C(=C\c2ccc3c(c2)OCO3)C(=O)N1`, the IC50 was 0.11 µM.
With `CCCNC1=N/C(=C\c2ccc3c(c2)OCO3)C(=O)N1` the IC50 was 0.55 µM.

Target: T2, Dual specificity tyrosine-phosphorylation-regulated kinase 3 (Homo sapiens, UniProt O43781)
T2 sequence (O43781 whole entry): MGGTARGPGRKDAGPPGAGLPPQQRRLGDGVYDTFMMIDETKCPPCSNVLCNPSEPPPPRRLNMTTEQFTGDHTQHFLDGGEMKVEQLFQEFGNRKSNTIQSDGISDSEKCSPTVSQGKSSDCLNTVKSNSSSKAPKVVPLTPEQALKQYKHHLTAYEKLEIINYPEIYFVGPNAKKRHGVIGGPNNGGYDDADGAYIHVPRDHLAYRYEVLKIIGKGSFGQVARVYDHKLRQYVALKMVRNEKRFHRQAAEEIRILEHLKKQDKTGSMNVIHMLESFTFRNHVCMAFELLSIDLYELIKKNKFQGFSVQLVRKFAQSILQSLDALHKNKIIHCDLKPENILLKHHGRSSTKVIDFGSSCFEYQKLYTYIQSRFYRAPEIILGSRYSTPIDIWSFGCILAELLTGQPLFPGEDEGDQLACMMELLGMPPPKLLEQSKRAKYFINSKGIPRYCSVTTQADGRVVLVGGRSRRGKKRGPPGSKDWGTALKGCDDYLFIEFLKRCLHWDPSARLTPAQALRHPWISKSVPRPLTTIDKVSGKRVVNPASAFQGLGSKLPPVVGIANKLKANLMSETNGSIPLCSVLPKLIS
Assay: Inhibition of GST-fused human recombinant DYRK3 expressed in Escherichia coli using GRSRSRSRSRSR peptide as substrate incubated for 30 mins in presence of ATP by scintillation counting method
Conditions: not given
`CCCNC1=N/C(=C\c2ccc3c(c2)OCO3)C(=O)N1c1ccccc1` showed an IC50 of 7 µM.
With `CCCSC1=N/C(=C\c2ccc3c(c2)OCO3)C(=O)N1` the IC50 was 0.51 µM.
In the case of `CCCNC1=N/C(=C\c2ccc3c(c2)OCO3)C(=O)N1`, the IC50 is reported as 0.65 µM.

Target: Casein kinase 2 (Homo sapiens, UniProt P67870+P68400+P19784+Q8NEV1)
Assay: Inhibition of human recombinant CK2 using RRRDDDSDDD peptide as substrate incubated for 30 mins in presence of ATP by scintillation counting method
Format: protein assay
Conditions: not given
`CCCSC1=N/C(=C\c2ccc3c(c2)OCO3)C(=O)N1` gave an IC50 of 1.7 µM.
Work on `CCCNC1=N/C(=C\c2ccc3c(c2)OCO3)C(=O)N1` yielded an IC50 of 1.4 µM.

System: U2OS
Assay: Induction of PI3K/mTor-dependent autophagy in human U2OS cells assessed as number of LC3 foci per cell at 10 uM measured after 4 hrs
Format: cell-based
Conditions: filed as activator
Work on `CCCNC1=N/C(=C\c2ccc3c(c2)OCO3)C(=O)N1c1ccccc1` yielded an Activity of 4.7.
For `CCCSC1=N/C(=C\c2ccc3c(c2)OCO3)C(=O)N1`, the Activity was 7.3.
`CCCNC1=N/C(=C\c2ccc3c(c2)OCO3)C(=O)N1` showed an Activity of 5.1.

System: HT-22
Assay: Modulation of CLK1 pre-mRNA splicing in mouse HT-22 cells assessed as inclusion of CLK1 exon 4 by measuring change in threshold cycle at 10 uM measured after 4 hrs by real time PCR analysis
Format: cell-based
Conditions: filed as modulator
In the case of `CCCNC1=N/C(=C\c2ccc3c(c2)OCO3)C(=O)N1c1ccccc1`, the deltaCT is reported as -0.05.
With `CCCSC1=N/C(=C\c2ccc3c(c2)OCO3)C(=O)N1` the deltaCT was 2.48.
With `CCCNC1=N/C(=C\c2ccc3c(c2)OCO3)C(=O)N1` the deltaCT was 5.11.

Target: Serine/threonine-protein kinase pim-1 (Homo sapiens, UniProt P11309)
Sequence (P11309 whole entry): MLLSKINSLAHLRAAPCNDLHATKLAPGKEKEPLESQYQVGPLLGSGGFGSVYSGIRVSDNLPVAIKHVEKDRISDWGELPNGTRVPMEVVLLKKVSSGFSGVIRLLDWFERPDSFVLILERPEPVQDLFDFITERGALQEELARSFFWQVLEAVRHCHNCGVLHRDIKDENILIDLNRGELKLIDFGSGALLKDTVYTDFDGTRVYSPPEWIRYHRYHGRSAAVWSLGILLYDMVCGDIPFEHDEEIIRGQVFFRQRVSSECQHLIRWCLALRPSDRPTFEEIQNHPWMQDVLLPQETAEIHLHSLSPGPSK
Assay: Inhibition of human recombinant Pim1 expressed in Escherichia coli using histone H1 as substrate incubated for 30 mins in presence of ATP by scintillation counting method
Conditions: not given
`CCCSC1=N/C(=C\c2ccc3c(c2)OCO3)C(=O)N1` showed an IC50 of 0.95 µM.
Work on `CCCNC1=N/C(=C\c2ccc3c(c2)OCO3)C(=O)N1` yielded an IC50 of 1.2 µM.

Target: T3, Dual specificity tyrosine-phosphorylation-regulated kinase 2 (Homo sapiens, UniProt Q92630)
T3 sequence (Q92630 whole entry): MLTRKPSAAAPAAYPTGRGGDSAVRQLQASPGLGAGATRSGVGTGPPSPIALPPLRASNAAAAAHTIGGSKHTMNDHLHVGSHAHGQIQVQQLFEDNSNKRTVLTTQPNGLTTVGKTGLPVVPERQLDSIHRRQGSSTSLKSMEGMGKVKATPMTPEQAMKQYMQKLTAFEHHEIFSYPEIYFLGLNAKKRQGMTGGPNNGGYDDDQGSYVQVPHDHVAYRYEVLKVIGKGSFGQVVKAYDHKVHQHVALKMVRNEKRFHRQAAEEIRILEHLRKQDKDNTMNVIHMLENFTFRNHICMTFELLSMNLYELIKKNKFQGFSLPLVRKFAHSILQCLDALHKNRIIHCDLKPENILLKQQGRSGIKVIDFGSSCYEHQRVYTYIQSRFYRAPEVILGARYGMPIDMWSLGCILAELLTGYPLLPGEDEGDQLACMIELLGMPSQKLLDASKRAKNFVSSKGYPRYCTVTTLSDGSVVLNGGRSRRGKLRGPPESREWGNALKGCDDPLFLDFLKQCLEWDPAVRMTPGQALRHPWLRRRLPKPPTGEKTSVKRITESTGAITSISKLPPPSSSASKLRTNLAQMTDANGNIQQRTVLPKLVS
Assay: Inhibition of GST-fused human recombinant DYRK2 expressed in Escherichia coli using GRSRSRSRSRSR peptide as substrate incubated for 30 mins in presence of ATP by scintillation counting method
Conditions: not given
`CCCNC1=N/C(=C\c2ccc3c(c2)OCO3)C(=O)N1c1ccccc1` gave an IC50 of 7.2 µM.
Compound `CCCSC1=N/C(=C\c2ccc3c(c2)OCO3)C(=O)N1` has an IC50 of 0.037 µM.
Work on `CCCNC1=N/C(=C\c2ccc3c(c2)OCO3)C(=O)N1` yielded an IC50 of 0.1 µM.

Reference: ChEMBL document CHEMBL5126517, “Structure-Activity Relationship in the Leucettine Family of Kinase Inhibitors” (J Med Chem, 2022)
